This assay concerns HEK 293T cells encoding an NF-κB-driven luciferase reporter gene. The assay can be described thus: NF-κB-driven luciferase reporter assay in HEK 293T cells. In kind it is cell-based, human. Particulars: FIG. 12; HEK 293T; 10, 30 or 50 μg/mL, digitonin 20 min, luciferase after 6 hours. As to the method:
FIGS. 10A-B. Effect of chemically synthesised analogues on human embryonic kidney cells (HEK 293T) encoding an NF-κB-driven luciferase reporter gene. NF-κB luciferase activity was measured in wild type (WT) or TIFA knockout (TIFA KO) cells treated with compounds in the presence of digitonin for 20 min, washed, and then cultured in normal medium without the synthetic compounds for 6 hrs after treatment, before luciferase activity was measured. (A) Cells were treated with 10 μg/mL of the indicated compound. Data are means±standard error mean of technical triplicates. (B) Cells were treated with two different molar concentrations of compound (30 μM or 150 μM). Two batches of DD-β-HBP and DD-β-HMP synthesized independently of one another were tested (batch #1 and batch #2) to assess consistency of the chemical synthesis. Data are means±standard error mean of technical triplicates and are representative of three independent experiments. JS-12: D-glycero-D-manno-heptose; JS-2: D-glycero-D-manno-heptose 7-phosphate; JS-7:D-glycero-β-D-manno-heptose-phosphate; JS-8: D-glycero-α-D-manno-heptose-phosphate; JS-9: β-D-mannose phosphate; JS-6:D-glycero-β-D-manno heptose 1,7-biphosphate; JS-5: D-glycero-α-D-manno heptose 1,7-biphosphate.
FIG. 12. Effects of compounds/products according to the invention on HEK 293T cells encoding an NF-κB-driven luciferase reporter gene. HEK 293T cells were transfected with a plasmid encoding an NF-κB-driven luciferase reporter. After 24 hours, cells were stimulated for 20 minutes in permeabilization buffer (5 μg/mL digitonin) in the presence of water or 10 μg/mL, 30 μg/mL, or 50 μg/mL of indicated synthetic compounds according to the invention. Treatment was removed; cells were washed and incubated for 6 hours incomplete medium. A luciferase assay was then performed. JS-12a control: D-glycero-D-manno heptose. The results are the means±standard error of the mean of three technical replicates. JS-10: 7-O-(Aminoethyl)-D-glycero-β-D-manno-heptopyranose phosphate; JS-11: 7-O-(Aminoethyl)-D-glycero-D-manno-heptopyranose; JS-12: D-glycero-D-manno-heptose; Js-13: pH-Rhodo-7-O-(aminoethyl)-D-glycero-β-D-manno-heptopyranose phosphate.
FIG. 14. Effects of compounds/products according to the invention on HEK 293T cells encoding an NF-κB-driven luciferase reporter gene. HEK 293T cells were transfected with a plasmid encoding an NF-κB-driven luciferase reporter. After 24 hours, cells were stimulated for 20 minutes in permeabilization buffer (5 μg/mL digitonin) in the presence of water, or either 30 μM or 150 μM of indicated synthetic compounds according to the invention. Treatment was removed; cells were washed and incubated for 6 hours in complete medium. A luciferase assay was then performed. […]

`NCCOC[C@@H](O)C1O[C@@H](OP(=O)([O-])[O-])C(O)[C@@H](O)[C@@H]1O.[Na+].[Na+]` (stereo partly drawn) [JS-10a, 7-O-(Aminoethyl)-D-glycero-β-D-manno-heptopyranose phosphate]: the “inflammatory response (NF-κB luciferase)” value is “modest inflammatory response”.

The values are drawn from US11795190B2, “D-glycero-B-D-heptose 1-phosphate (HMP) conjugates and use for targeted immune modulation” (NATIONAL RESEARCH COUNCIL OF CANADA, priority 2017, dated 2023).
